Results published in patent publication US20230295181A1, “INHIBITOR OF APOPTOSIS (IAP) PROTEIN ANTAGONISTS” (Sanford Burnham Prebys Medical Discovery Institute, priority 2020, published 2023).
Structures can show the parent of a compound that is named as a salt.

Key:
Format in all cases: cell-based
OVCAR-4 = assay: Cell viability (CellTiterGlo), OVCAR-4; conditions: Homo sapiens
Method: (§1) Candidate compounds are tested in 384-well plates for effects on cell viability in the presence or absence of an appropriate conventional anticancer drug. Cell viability is indirectly monitored in the first instance using CellTiterGlo (Promega Corp., Madison, WI) (Table D). To determine if cell death is apoptotic, the induction of caspase activity is assessed utilizing the CaspaseGlo Assay system (Promega Corp., Madison, WI) (Table E). Cell viability is monitored 1 to 3 days after addition of compounds and conventional drugs. […] A compound of any of the formulae as disclosed herein is evaluated in combination with said anticancer drug to determine which ML-IAP antagonist can sensitize most efficaciously. Select candidate compounds are tested in 14 point drug dose response (DDR) curves in a 384-well format in order to establish potency in combination with decreasing concentrations of lung cancer relevant drug regimens. Furthermore, checker-board titrations of a conventional drug and the candidate molecules are performed to search for synergy (using ISOBOLOGRAM analysis). Compounds and combinations as described herein are also tested for cytotoxicity against normal human cells (e.g. primary fibroblasts, lymphocytes, hepatocytes, epithelial and endothelial cells) using known methods.
(§2) Cell viability was evaluated following treatment with a compound as disclosed in Table D. Viability of cancer cells following treatment is indicated according to the following legend: […]

SKOV-3 cancer cell lines = assay: SKOV-3 cell viability after treatment with 10 μM test compound; conditions: for viability at 10 µM: Homo sapiens, SK-OV-3, 10 micromolar test compound, SKOV-3 cells; for % viability after treatment with 10 micromolar of test compound (SKOV-3 cells): 10 micromolar test compound, hydrochloride
Method: SKOV-3 cancer cell lines were treated with a test compound, either as a pure enantiomer or a mixture of stereoisomers, at a concentration of 10 μM. Cell viability was evaluated following treatment with a compound as disclosed in Table B. Viability of cancer cells following treatment is indicated according to the following legend:
A=0-25% viability B=26-50% viability C=>50% viability

SKOV-3 = assay: Cell viability (CellTiterGlo), SKOV-3; conditions: Homo sapiens, SK-OV-3
Method: as §1, §2

IC50 (OVCAR-4) | IC50 (SKOV-3) | Compound | viability at 10 µM (SKOV-3 cancer cell lines) | % viability after treatment with 10 micromolar of test compound (SKOV-3 cells) (SKOV-3 cancer cell lines)
> 1000 nM | > 1000 nM | CN[C@@H](C)C(=O)N[C@H]1CCS(=O)(=O)[C@H]2CC(C)(C)[C@@H](C(=O)N[C@@H]3CCCc4ccccc43)N2C1=O [Compound 1, (4S,7S,9aS)-8,8-dimethyl-4-((S)-2-(methylamino)propanamido)-5-oxo-N—((R)-1,2,3,4-tetrahydronaphthalen-1-yl)octahydropyrrolo[2,1-b][1,3]thiazepine-7-carboxamide 1,1-dioxide hydrochloride] | > 50% | 
> 1000 nM | > 1000 nM | CN[C@@H](C)C(=O)N[C@H]1CCOC2CC(C)(C)[C@@H](C(=O)Nc3ccccc3-c3ncccn3)N2C1=O (stereo partly drawn) [Compound 55, (4S,7S)-8,8-dimethyl-4-((S)-2-(methylamino)propanamido)-5-oxo-N-(2-(pyrimidin-2-yl)phenyl)octahydropyrrolo[2,1-b][1,3]oxazepine-7-carboxamide hydrochloride] | > 50% | 
100 to 1000 nM | 100 to 1000 nM | CN[C@@H](C)C(=O)N[C@H]1Cc2cc(OC)ccc2[C@H]2CC(C)(C)[C@@H](C(=O)N[C@@H]3CCCc4ccccc43)N2C1=O [Compound 9, (6S,11bR)-9-methoxy-2,2-dimethyl-6-((S)-2-(methylamino)propanamido)-5-oxo-N—((R)-1,2,3,4-tetrahydronaphthalen-1-yl)-2,3,5,6,7,11b-hexahydro-1H-benzo[c]pyrrolo[1,2-a]azepine-3-carboxamide hydrochloride] | 0 to 25% | 
> 1000 nM | 10 to 100 nM | C=CCC1C[C@@H]2SCC[C@H](NC(=O)[C@H](C)NC)C(=O)N2[C@@H]1C(=O)N[C@@H]1CCCc2ccccc21 (stereo partly drawn) [Compound 32, (4S,9aS)-8,8-allyl-4-((S)-2-(methylamino)propanamido)-5-oxo-N—((R)-1,2,3,4-tetrahydronaphthalen-1-yl)octahydropyrrolo[2,1-b][1,3]thiazepine-7-carboxamide hydrochloride] |  | A (A=0-25% viability)
100 to 1000 nM | 10 to 100 nM | CN[C@@H](C)C(=O)N[C@H]1CCO[C@H]2CC(C)(C)[C@@H](C(=O)N[C@@H]3CCSc4ccccc43)N2C1=O [Compound 69, (4S,7S,9aS)-8,8-dimethyl-4-((S)-2-(methylamino)propanamido)-5-oxo-N—((R)-thiochroman-4-yl)octahydropyrrolo[2,1-b][1,3]oxazepine-7-carboxamide hydrochloride] | 0 to 25% | 
> 1000 nM | 100 to 1000 nM | CN[C@@H](C)C(=O)N[C@H]1CCS[C@H]2CC(CCc3ccccc3)(CCc3ccccc3)[C@@H](C(=O)N[C@@H]3CCCc4ccccc43)N2C1=O [Compound 45, (4S,9aS)-4-((S)-2-(methylamino)propanamido)-5-oxo-8,8-diphenethyl-N—((R)-1,2,3,4-tetrahydronaphthalen-1-yl)octahydropyrrolo[2,1-b][1,3]thiazepine-7-carboxamide hydrochloride] | 0 to 25% | 
100 to 1000 nM | 100 to 1000 nM | C=CCC1(CC=C)C[C@@H]2OCC[C@H](NC(=O)[C@H](C)NC)C(=O)N2[C@@H]1C(=O)N[C@@H]1CCCc2ccccc21 [Compound 14, (4S,9aS)-8,8-diallyl-4-((S)-2-(methylamino)propanamido)-5-oxo-N—((R)-1,2,3,4-tetrahydronaphthalen-1-yl)octahydropyrrolo[2,1-b][1,3]oxazepine-7-carboxamide hydrochloride] | 0 to 25% | 
> 1000 nM | 10 to 100 nM | C=CCC1C[C@@H]2OCC[C@H](NC(=O)[C@H](C)NC)C(=O)N2[C@@H]1C(=O)N[C@@H]1CCCc2ccccc21 (stereo partly drawn) [Compound 15, (4S,9aS)-8,8-allyl-4-((S)-2-(methylamino)propanamido)-5-oxo-N—((R)-1,2,3,4-tetrahydronaphthalen-1-yl)octahydropyrrolo[2,1-b][1,3]oxazepine-7-carboxamide hydrochloride] | 26 to 50% | 
> 1000 nM | > 1000 nM | CN[C@@H](C)C(=O)N[C@H]1CCS[C@H]2CC(CCc3ccccc3)[C@@H](C(=O)N[C@@H]3CCCc4ccccc43)N2C1=O (stereo partly drawn) [Compound 44, (4S,9aS)-4-((S)-2-(methylamino)propanamido)-5-oxo-8,8-phenethyl-N—((R)-1,2,3,4-tetrahydronaphthalen-1-yl)octahydropyrrolo[2,1-b][1,3]thiazepine-7-carboxamide hydrochloride] |  | A (A=0-25% viability)
> 1000 nM | > 1000 nM | CN[C@@H](C)C(=O)N[C@H]1CCO[C@H]2CC(C)(C)[C@@H](CN[C@@H]3CCCc4ccccc43)N2C1=O [Compound 56, (S)—N-((4S,7S,9aS)-8,8-dimethyl-5-oxo-7-((((R)-1,2,3,4-tetrahydronaphthalen-1-yl)amino)methyl)octahydropyrrolo[2,1-b][1,3]oxazepin-4-yl)-2-(methylamino)propanamide dihydrochloride] | > 50% | 
> 1000 nM | > 1000 nM | CN[C@@H](C)C(=O)N[C@H]1Cc2c([nH]c3ccccc23)[C@H]2CC(C)(C)C(C(=O)N[C@@H]3CCCc4ccccc43)N2C1=O (stereo in doubt) [Compound 2, (3R, 6S,12bR)-2,2-dimethyl-6-((S)-2-(methylamino)propanamido)-5-oxo-N—((R)-1,2,3,4-tetrahydronaphthalen-1-yl)-1,2,3,5,6,7,12,12b-octahydropyrrolo[1′,2′:1,2]azepino[3,4-b]indole-3-carboxamide hydrochloride] | 26 to 50% | 
100 to 1000 nM | 10 to 100 nM | CCC1C[C@@H]2SCC[C@H](NC(=O)[C@H](C)NC)C(=O)N2[C@@H]1C(=O)N[C@@H]1CCCc2ccccc21 (stereo partly shown) [Compound 36, hydrochloride] | 26 to 50% | 
> 1000 nM | > 1000 nM | C=CCC1(CC=C)C[C@@H]2SCC[C@H](NC(=O)[C@H](C)NC)C(=O)N2[C@@H]1C(=O)N[C@@H]1CCCc2ccccc21 [Compound 29, (4S,9aS)-8,8-diallyl-4-((S)-2-(methylamino)propanamido)-5-oxo-N—((R)-1,2,3,4-tetrahydronaphthalen-1-yl)octahydropyrrolo[2,1-b][1,3]thiazepine-7-carboxamide hydrochloride] |  | A (A=0-25% viability)
10 to 100 nM | 10 to 100 nM | CN[C@@H](C)C(=O)N[C@H]1CC(CSc2ccccc2)O[C@H]2CC(C)(C)C(C(=O)N[C@@H]3CCCc4ccccc43)N2C1=O (mixture of isomers) [Compound 75, rac-(4R)-8,8-dimethyl-4-((R)-2-(methylamino)propanamido)-5-oxo-2-((phenylthio)methyl)-N—((S)-1,2,3,4-tetrahydronaphthalen-1-yl)octahydropyrrolo[2,1-b][1,3]oxazepine-7-carboxamide hydrochloride] | 0 to 25% | 
 |  | CN[C@@H](C)C(=O)N[C@H]1CCS[C@H]2CC(C)(C)[C@@H](C(=O)N[C@H]3c4ccccc4C[C@H]3OCCF)N2C1=O [Compound 78, (4S,7S,9aS)—N-((1S,2R)-2-(2-fluoroethoxy)-2,3-dihydro-1H-inden-1-yl)-8,8-dimethyl-4-((S)-2-(methylamino)propanamido)-5-oxooctahydropyrrolo[2,1-b][1,3]thiazepine-7-carboxamide hydrochloride] | 0 to 25% | 
 |  | C#CCO[C@@H]1Cc2ccccc2[C@@H]1NC(=O)[C@H]1N2C(=O)[C@@H](NC(=O)[C@H](C)NC)CCS[C@H]2CC1(C)C [Compound 83, (2S)-1-{[(4S,7S,9aS)-8,8-Dimethyl-5-oxo-7-{[(1S,2R)-2-(prop-2-yn-1-yloxy)-2,3-dihydro-1H-inden-1-yl]carbamoyl}octahydropyrrolo[2,1-b][1,3]thiazepin-4-yl]amino}-N-methyl-1-oxopropan-2-ammonium chloride] | 0 to 25% | 
 |  | CCC1(CC)C[C@@H]2OCC[C@H](NC(=O)[C@H](C)NC)C(=O)N2[C@H]1C(=O)N[C@@H]1CCCc2ccccc21 [Compound 19, (4S)-8,8-diethyl-4-((S)-2-(methylamino)propanamido)-5-oxo-N—((R)-1,2,3,4-tetrahydronaphthalen-1-yl)octahydropyrrolo[2,1-b][1,3]oxazepine-7-carboxamide hydrochloride] | 26 to 50% | 
 |  | CCC1C[C@@H]2OCC[C@H](NC(=O)[C@H](C)NC)C(=O)N2C1C(=O)N[C@@H]1CCCc2ccccc21 (stereo partly drawn) [Compound 20, (4S)-8,8-ethyl-4-((S)-2-(methylamino)propanamido)-5-oxo-N—((R)-1,2,3,4-tetrahydronaphthalen-1-yl)octahydropyrrolo[2,1-b][1,3]oxazepine-7-carboxamide hydrochloride] | 26 to 50% | 
